From patent US20160152995A1, “METHODS AND COMPOSITIONS TO IMPROVE THE SPREAD OF CHEMICAL SIGNALS IN PLANTS” (PIONEER HI-BRED INTERNATIONAL, INC., priority 2013, published 2016)

Legend:
DS-RED expression = assay: DS-RED induction in soybean T0 leaf discs floated on ethametsulfuron; format: in vivo; settings: soybean T0 leaf discs of experimental plants (pPHP46864, amiRNA) vs control pPHP46916; 0.05 ppm or 0.5 ppm, 3-4 days
Source text: (§1) The first, a control construct, pPHP46916 (10,904 bp) (SEQ ID NO: 2111) contains the following cassettes: cassette A comprising a Glycine max s-adenosylmethionine promoter operably linked to the Glycine max acetolactate synthase gene with HrA mutations operably linked to a Glycine max acetolactate synthase terminator (this cassette serves as a selectable marker during plant transformation; position 81-4062); followed by cassette B comprising the T7 promoter operably linked to hygromycin phosphotransferase operably linked to a T7 terminator (which serves as a selectable marker in E. coli, positions 5448-6586); followed by cassette C comprising a cauliflower mosaic virus 35S promoter with three copies of the TET operator embedded operably linked to DS-RED Express that has the potato LS1 intron; operably linked to the cauliflower mosaic virus 35S terminator (position 6862-8455), followed by cassette D comprising the Glycine max elongation factor 1a2 promoter operably linked to the repressor protein ESR (L10-B7) operably linked to the nos terminator (position 8474-10893). The second, experimental construct, pPHP46864 (11,868 bp) (SEQ ID NO:2112) is exactly the same except embedded within the potato LS1 intron at the Mfe1 site is a 964 bp cassette containing the Glycine max microRNA precursor 159 containing a microRNA that targets the repressor protein. […]

DsRED gene expression = assay: DsRED induction in transgenic tobacco leaf disks and T1 seedlings with Ethametsulfuron; format: in vivo, Nicotiana tabacum; settings: T1 seeds germinated on 1 ppm Ethametsulfuron, monitored thru four leaf stage
Source text: A summary of the constructs shown in FIG. 4 is provided below in table 29. All vectors contain a right border (RB) proximal 35S::3xtetO-DsRED-UBQ3 inducible reporter cassette, a 35S::1xtetO-EsR(L13-32)-UBQ14 repressor cassette, and a SAMS-HRA-ALS left border (LB) proximal selectable marker. Inserted either upstream (pHD1194-1196) or downstream ([…]) of the repressor cassette are MMV::3xOp-siRNA^rep-Pin2 cassettes composed of an inverted repeat of the full length repressor coding region (no ATG-pHD1194 and 1197) or limited to the 5′ (pHD1195 & 1198) or 3′ (pHD1196 & 1199) halves of the SU repressor coding region linked by an intron spacer region. The MMV::tetO promoter was chosen so as not to cause silencing of the 35S::tetO promoter controlling target transgene expression. In this particular example the spacer region is the potato ST-LS1 gene intron IV2 (Construction of an intron-containing marker gene: splicing of the intron in transgenic plants and its use in monitoring early events in Agrobacterium-mediated plant transformation. Vancanneyt et al. (1990) Mol Gen Genet. 220(2):245-50). […] Nine fully derepressed DsRED positive seedings for each event were then transplanted into soil and their fluorescence phenotype monitored thru the four leaf developmental stage. […]

DS-red signal = DS-red signal in soybean T1 plants from seed imbibed with chlorsulfuron; format: in vivo; settings: T1 seed imbibed with 1 ppm, two weeks
Source text: as §1

| Structure (SMILES) | pattern of DS-RED expression in inducible leaf discs (DS-RED expression) | DsRED expression signal (DsRED gene expression; pHD1180 control tobacco events (no siRNA cassette)) | DsRED intensity level (DsRED gene expression; tobacco lines containing the MMV::tetO-siRNArep cassette (pHD1194-1199)) | DS-red signal (DS-red signal; control soybean plants (pPHP46916)) | DS-red signal (DS-red signal; experimental soybean plants (pPHP46864, amiRNA)) |
| --- | --- | --- | --- | --- | --- |
| CCOc1nc(NC)nc(NC(=O)NS(=O)(=O)c2ccccc2C(=O)OC)n1 [Ethametsulfuron, Ethametsulfuron-methyl] | smoother, more even pattern of expression | modest and diminishes | high and remains so with time | – | – |
| COc1nc(C)nc(NC(=O)NS(=O)(=O)c2ccccc2Cl)n1 [chlorsulfuron] | – | – | – | no DS-red signal found in root, stem or cotyledon | weak DS-red signal |
